Source: ChEMBL document CHEMBL4507256 (2021)

Legend:
[1] = target: D(3) dopamine receptor (Homo sapiens) (UniProt P35462); experiment: D3 (h) CEREP ligand profiling; details: Compound concentration 10.0 uM
[2] = target: T1, 5-hydroxytryptamine receptor 3A (Homo sapiens) (UniProt P46098); experiment: 5-HT3 (h) CEREP ligand profiling; details: Compound concentration 10.0 uM
T1 sequence (whole entry): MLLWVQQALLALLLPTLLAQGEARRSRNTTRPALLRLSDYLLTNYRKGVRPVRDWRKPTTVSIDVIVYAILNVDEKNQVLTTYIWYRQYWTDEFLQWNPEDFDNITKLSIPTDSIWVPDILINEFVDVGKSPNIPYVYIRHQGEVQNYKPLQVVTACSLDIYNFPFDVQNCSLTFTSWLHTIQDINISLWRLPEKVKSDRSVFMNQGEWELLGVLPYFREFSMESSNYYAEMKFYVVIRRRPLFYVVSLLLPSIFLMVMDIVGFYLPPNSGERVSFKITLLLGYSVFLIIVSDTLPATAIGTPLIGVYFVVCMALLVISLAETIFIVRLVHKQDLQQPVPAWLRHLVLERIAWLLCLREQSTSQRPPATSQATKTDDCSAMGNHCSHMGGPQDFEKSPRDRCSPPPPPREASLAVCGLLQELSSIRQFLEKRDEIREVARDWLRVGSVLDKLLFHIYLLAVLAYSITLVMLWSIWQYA

D(3) dopamine receptor (Homo sapiens), sequence (P35462 whole entry): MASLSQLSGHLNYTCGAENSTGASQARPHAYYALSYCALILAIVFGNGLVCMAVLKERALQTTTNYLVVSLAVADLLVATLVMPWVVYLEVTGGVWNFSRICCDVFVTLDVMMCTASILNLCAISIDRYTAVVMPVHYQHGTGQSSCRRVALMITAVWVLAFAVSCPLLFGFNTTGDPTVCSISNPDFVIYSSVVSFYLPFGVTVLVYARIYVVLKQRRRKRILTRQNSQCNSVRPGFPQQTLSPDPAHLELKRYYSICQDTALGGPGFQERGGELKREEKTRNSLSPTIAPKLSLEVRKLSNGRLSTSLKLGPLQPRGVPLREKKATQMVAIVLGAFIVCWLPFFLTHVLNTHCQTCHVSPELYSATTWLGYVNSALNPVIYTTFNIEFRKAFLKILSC

CCC(=N\O)/C(C)=C/c1ccc(F)cc1 [A-079] gave an inhibition [1] of 14% and an inhibition [2] of 0%.
